In BigSolDB 2.1:

SMILES: c1ccc(-c2nnn[nH]2)cc1
- solubility (mole fraction) (in 1,4-dioxane, 283.15 K): 0.00929
- solubility (mole fraction) (in 1,4-dioxane, 285.65 K): 0.00982
- solubility (mole fraction) (in 1,4-dioxane, 288.15 K): 0.0104
- solubility (mole fraction) (in 1,4-dioxane, 290.65 K): 0.0109
- solubility (mole fraction) (in 1,4-dioxane, 293.15 K): 0.0114
- solubility (mole fraction) (in 1,4-dioxane, 295.65 K): 0.012
- solubility (mole fraction) (in 1,4-dioxane, 298.15 K): 0.0125
- solubility (mole fraction) (in 1,4-dioxane, 300.65 K): 0.0131
- solubility (mole fraction) (in 1,4-dioxane, 303.15 K): 0.0138
- solubility (mole fraction) (in 1,4-dioxane, 305.65 K): 0.0145
- solubility (mole fraction) (in 1,4-dioxane, 308.15 K): 0.0151
- solubility (mole fraction) (in 1,4-dioxane, 310.65 K): 0.0158
- solubility (mole fraction) (in 1,4-dioxane, 313.15 K): 0.0165
- solubility (mole fraction) (in 1,4-dioxane, 315.65 K): 0.0172
- solubility (mole fraction) (in 1,4-dioxane, 318.15 K): 0.018
- solubility (mole fraction) (in 2-butanone, 283.15 K): 0.0156
- solubility (mole fraction) (in 2-butanone, 285.65 K): 0.0163
- solubility (mole fraction) (in 2-butanone, 288.15 K): 0.017
- solubility (mole fraction) (in 2-butanone, 290.65 K): 0.0178
- solubility (mole fraction) (in 2-butanone, 293.15 K): 0.0185
- solubility (mole fraction) (in 2-butanone, 295.65 K): 0.0193
- solubility (mole fraction) (in 2-butanone, 298.15 K): 0.0202
- solubility (mole fraction) (in 2-butanone, 300.65 K): 0.0211
- solubility (mole fraction) (in 2-butanone, 303.15 K): 0.022
- solubility (mole fraction) (in 2-butanone, 305.65 K): 0.023
- solubility (mole fraction) (in 2-butanone, 308.15 K): 0.0239
- solubility (mole fraction) (in 2-butanone, 310.65 K): 0.0249
- solubility (mole fraction) (in 2-butanone, 313.15 K): 0.026
- solubility (mole fraction) (in 2-butanone, 315.65 K): 0.0271
- solubility (mole fraction) (in 2-butanone, 318.15 K): 0.0281
- solubility (mole fraction) (in DMF, 283.15 K): 0.208
- solubility (mole fraction) (in DMF, 285.65 K): 0.22
- solubility (mole fraction) (in DMF, 288.15 K): 0.231
- solubility (mole fraction) (in DMF, 290.65 K): 0.244
- solubility (mole fraction) (in DMF, 293.15 K): 0.257
- solubility (mole fraction) (in DMF, 295.65 K): 0.269
- solubility (mole fraction) (in DMF, 298.15 K): 0.282
- solubility (mole fraction) (in DMF, 300.65 K): 0.296
- solubility (mole fraction) (in DMF, 303.15 K): 0.308
- solubility (mole fraction) (in DMF, 305.65 K): 0.322
- solubility (mole fraction) (in DMF, 308.15 K): 0.336
- solubility (mole fraction) (in DMF, 310.65 K): 0.35
- solubility (mole fraction) (in DMF, 313.15 K): 0.365
- solubility (mole fraction) (in DMF, 315.65 K): 0.379
- solubility (mole fraction) (in DMF, 318.15 K): 0.393
- solubility (mole fraction) (in DMSO, 293.15 K): 0.278
- solubility (mole fraction) (in DMSO, 295.65 K): 0.291
- solubility (mole fraction) (in DMSO, 298.15 K): 0.304
- solubility (mole fraction) (in DMSO, 300.65 K): 0.317
- solubility (mole fraction) (in DMSO, 303.15 K): 0.33
- solubility (mole fraction) (in DMSO, 305.65 K): 0.343
- solubility (mole fraction) (in DMSO, 308.15 K): 0.356
- solubility (mole fraction) (in DMSO, 310.65 K): 0.369
- solubility (mole fraction) (in DMSO, 313.15 K): 0.384
- solubility (mole fraction) (in DMSO, 315.65 K): 0.398
- solubility (mole fraction) (in DMSO, 318.15 K): 0.412
- solubility (mole fraction) (in acetone, 283.15 K): 0.0169
- solubility (mole fraction) (in acetone, 285.65 K): 0.0176
- solubility (mole fraction) (in acetone, 288.15 K): 0.0184
- solubility (mole fraction) (in acetone, 290.65 K): 0.0192
- solubility (mole fraction) (in acetone, 293.15 K): 0.02
- solubility (mole fraction) (in acetone, 295.65 K): 0.0208
- solubility (mole fraction) (in acetone, 298.15 K): 0.0217
- solubility (mole fraction) (in acetone, 300.65 K): 0.0226
- solubility (mole fraction) (in acetone, 303.15 K): 0.0236
- solubility (mole fraction) (in acetone, 305.65 K): 0.0245
- solubility (mole fraction) (in acetone, 308.15 K): 0.0256
- solubility (mole fraction) (in acetone, 310.65 K): 0.0266
- solubility (mole fraction) (in acetone, 313.15 K): 0.0278
- solubility (mole fraction) (in acetone, 315.65 K): 0.029
- solubility (mole fraction) (in acetone, 318.15 K): 0.0302
- solubility (mole fraction) (in acetonitrile, 283.15 K): 0.00181
- solubility (mole fraction) (in acetonitrile, 285.65 K): 0.00197
- solubility (mole fraction) (in acetonitrile, 288.15 K): 0.00216
- solubility (mole fraction) (in acetonitrile, 290.65 K): 0.00236
- solubility (mole fraction) (in acetonitrile, 293.15 K): 0.00253
- solubility (mole fraction) (in acetonitrile, 295.65 K): 0.0028
- solubility (mole fraction) (in acetonitrile, 298.15 K): 0.00307
- solubility (mole fraction) (in acetonitrile, 300.65 K): 0.00331
- solubility (mole fraction) (in acetonitrile, 303.15 K): 0.00359
- solubility (mole fraction) (in acetonitrile, 305.65 K): 0.00389
- solubility (mole fraction) (in acetonitrile, 308.15 K): 0.00421
- solubility (mole fraction) (in acetonitrile, 310.65 K): 0.00449
- solubility (mole fraction) (in acetonitrile, 313.15 K): 0.0049
- solubility (mole fraction) (in acetonitrile, 315.65 K): 0.0052
- solubility (mole fraction) (in acetonitrile, 318.15 K): 0.00555
- solubility (mole fraction) (in cyclohexane, 283.15 K): 3.56e-06
- solubility (mole fraction) (in cyclohexane, 285.65 K): 3.93e-06
- solubility (mole fraction) (in cyclohexane, 288.15 K): 4.34e-06
- solubility (mole fraction) (in cyclohexane, 290.65 K): 4.54e-06
- solubility (mole fraction) (in cyclohexane, 293.15 K): 5.04e-06
- solubility (mole fraction) (in cyclohexane, 295.65 K): 5.38e-06
- solubility (mole fraction) (in cyclohexane, 298.15 K): 5.97e-06
- solubility (mole fraction) (in cyclohexane, 300.65 K): 6.41e-06
- solubility (mole fraction) (in cyclohexane, 303.15 K): 6.91e-06
- solubility (mole fraction) (in cyclohexane, 305.65 K): 7.5e-06
- solubility (mole fraction) (in cyclohexane, 308.15 K): 8.16e-06
- solubility (mole fraction) (in cyclohexane, 310.65 K): 8.97e-06
- solubility (mole fraction) (in cyclohexane, 313.15 K): 9.6e-06
- solubility (mole fraction) (in cyclohexane, 315.65 K): 1.04e-05
- solubility (mole fraction) (in cyclohexane, 318.15 K): 1.11e-05
- solubility (mole fraction) (in ethanol, 283.15 K): 0.0148
- solubility (mole fraction) (in ethanol, 285.65 K): 0.0156
- solubility (mole fraction) (in ethanol, 288.15 K): 0.0164
- solubility (mole fraction) (in ethanol, 290.65 K): 0.0172
- solubility (mole fraction) (in ethanol, 293.15 K): 0.0181
- solubility (mole fraction) (in ethanol, 295.65 K): 0.019
- solubility (mole fraction) (in ethanol, 298.15 K): 0.02
- solubility (mole fraction) (in ethanol, 300.65 K): 0.0209
- solubility (mole fraction) (in ethanol, 303.15 K): 0.022
- solubility (mole fraction) (in ethanol, 305.65 K): 0.023
- solubility (mole fraction) (in ethanol, 308.15 K): 0.0241
- solubility (mole fraction) (in ethanol, 310.65 K): 0.0253
- solubility (mole fraction) (in ethanol, 313.15 K): 0.0264
- solubility (mole fraction) (in ethanol, 315.65 K): 0.0277
- solubility (mole fraction) (in ethanol, 318.15 K): 0.0289
- solubility (mole fraction) (in ethyl acetate, 283.15 K): 0.00628
- solubility (mole fraction) (in ethyl acetate, 285.65 K): 0.00648
- solubility (mole fraction) (in ethyl acetate, 288.15 K): 0.00665
- solubility (mole fraction) (in ethyl acetate, 290.65 K): 0.00691
- solubility (mole fraction) (in ethyl acetate, 293.15 K): 0.00717
- solubility (mole fraction) (in ethyl acetate, 295.65 K): 0.00746
- solubility (mole fraction) (in ethyl acetate, 298.15 K): 0.00773
- solubility (mole fraction) (in ethyl acetate, 300.65 K): 0.00804
- solubility (mole fraction) (in ethyl acetate, 303.15 K): 0.00838
- solubility (mole fraction) (in ethyl acetate, 305.65 K): 0.00878
- solubility (mole fraction) (in ethyl acetate, 308.15 K): 0.00918
- solubility (mole fraction) (in ethyl acetate, 310.65 K): 0.00961
- solubility (mole fraction) (in ethyl acetate, 313.15 K): 0.0101
- solubility (mole fraction) (in ethyl acetate, 315.65 K): 0.0106
- solubility (mole fraction) (in ethyl acetate, 318.15 K): 0.0111
- solubility (mole fraction) (in isopropanol, 283.15 K): 0.0141
- solubility (mole fraction) (in isopropanol, 285.65 K): 0.0147
- solubility (mole fraction) (in isopropanol, 288.15 K): 0.0155
- solubility (mole fraction) (in isopropanol, 290.65 K): 0.0163
- solubility (mole fraction) (in isopropanol, 293.15 K): 0.0171
- solubility (mole fraction) (in isopropanol, 295.65 K): 0.0179
- solubility (mole fraction) (in isopropanol, 298.15 K): 0.0189
- solubility (mole fraction) (in isopropanol, 300.65 K): 0.0198
- solubility (mole fraction) (in isopropanol, 303.15 K): 0.0208
- solubility (mole fraction) (in isopropanol, 305.65 K): 0.0217
- solubility (mole fraction) (in isopropanol, 308.15 K): 0.0227
- solubility (mole fraction) (in isopropanol, 310.65 K): 0.0237
- solubility (mole fraction) (in isopropanol, 313.15 K): 0.0248
- solubility (mole fraction) (in isopropanol, 315.65 K): 0.0257
- solubility (mole fraction) (in isopropanol, 318.15 K): 0.0268
- solubility (mole fraction) (in methanol, 283.15 K): 0.0156
- solubility (mole fraction) (in methanol, 285.65 K): 0.0164
- solubility (mole fraction) (in methanol, 288.15 K): 0.0172
- solubility (mole fraction) (in methanol, 290.65 K): 0.018
- solubility (mole fraction) (in methanol, 293.15 K): 0.0189
- solubility (mole fraction) (in methanol, 295.65 K): 0.0199
- solubility (mole fraction) (in methanol, 298.15 K): 0.0209
- solubility (mole fraction) (in methanol, 300.65 K): 0.0219
- solubility (mole fraction) (in methanol, 303.15 K): 0.023
- solubility (mole fraction) (in methanol, 305.65 K): 0.024
- solubility (mole fraction) (in methanol, 308.15 K): 0.0252
- solubility (mole fraction) (in methanol, 310.65 K): 0.0264
- solubility (mole fraction) (in methanol, 313.15 K): 0.0276
- solubility (mole fraction) (in methanol, 315.65 K): 0.0289
- solubility (mole fraction) (in methanol, 318.15 K): 0.0302
- solubility (mole fraction) (in n-propanol, 283.15 K): 0.0136
- solubility (mole fraction) (in n-propanol, 285.65 K): 0.0142
- solubility (mole fraction) (in n-propanol, 288.15 K): 0.0148
- solubility (mole fraction) (in n-propanol, 290.65 K): 0.0154
- solubility (mole fraction) (in n-propanol, 293.15 K): 0.016
- solubility (mole fraction) (in n-propanol, 295.65 K): 0.0167
- solubility (mole fraction) (in n-propanol, 298.15 K): 0.0174
- solubility (mole fraction) (in n-propanol, 300.65 K): 0.0181
- solubility (mole fraction) (in n-propanol, 303.15 K): 0.0188
- solubility (mole fraction) (in n-propanol, 305.65 K): 0.0196
- solubility (mole fraction) (in n-propanol, 308.15 K): 0.0204
- solubility (mole fraction) (in n-propanol, 310.65 K): 0.0213
- solubility (mole fraction) (in n-propanol, 313.15 K): 0.0221
- solubility (mole fraction) (in n-propanol, 315.65 K): 0.023
- solubility (mole fraction) (in n-propanol, 318.15 K): 0.0239
- solubility (mole fraction) (in toluene, 283.15 K): 2.5e-05
- solubility (mole fraction) (in toluene, 285.65 K): 2.85e-05
- solubility (mole fraction) (in toluene, 288.15 K): 3.35e-05
- solubility (mole fraction) (in toluene, 290.65 K): 3.84e-05
- solubility (mole fraction) (in toluene, 293.15 K): 4.45e-05
- solubility (mole fraction) (in toluene, 295.65 K): 5.09e-05
- solubility (mole fraction) (in toluene, 298.15 K): 5.84e-05
- solubility (mole fraction) (in toluene, 300.65 K): 6.64e-05
- solubility (mole fraction) (in toluene, 303.15 K): 7.62e-05
- solubility (mole fraction) (in toluene, 305.65 K): 8.68e-05
- solubility (mole fraction) (in toluene, 308.15 K): 9.91e-05
- solubility (mole fraction) (in toluene, 310.65 K): 0.000113
- solubility (mole fraction) (in toluene, 313.15 K): 0.000129
- solubility (mole fraction) (in toluene, 315.65 K): 0.000146
- solubility (mole fraction) (in toluene, 318.15 K): 0.000165
